A short description of series [1]: Intracellular half-life of EFdA triphosphate in human. The class given is in vivo. To be noted: cells (intracellular; cell type not given), read-out: intracellular half-life of EFdA triphosphate (EFdA-TP) (converted).
A short description of series [2]: Phase I study: safety and tolerability (treatment-emergent adverse events). It is filed as in vivo, human. On the procedure:
Following oral absorption, 1-A is rapidly converted to ISL, which is metabolized intracellularly to the active metabolite, ISL triphosphate (ISL-TP). The objectives of the study were to assess the safety, tolerability, and PK profiles of 1-A and ISL in plasma; and ISL diphosphate (ISL-DP) and ISL-TP in human PBMCs.
(§1) Methods. Healthy adult subjects were enrolled in five single ascending dose and two multiple ascending dose cohorts. 1-A was administered to single dose cohorts in amounts of 10 mg, 25 mg, 50 mg, 100 mg or 200 mg. 1-A was administered to multiple dose cohorts in amounts of 10 mg per week for 3 weeks or 25 mg per week for 3 weeks. 1-A was orally administered in the fasted state using an oral solution formulation. Safety-related assessments included physical examinations, ECGs, vital signs, AEs, and standard clinical laboratory tests.

Series [3] in a line: Phase I study: pharmacokinetics of ISL-TP in PBMCs. It is filed as in vivo, human. Conditions: for ISL-TP in PBMCs AUClast / ISL-TP in PBMCs Cmax: 3 weekly oral doses of 25 mg 1-A, healthy adults, mean.
From the text: (§2) This example describes results from a Phase I, randomized, double-blind, placebo-controlled study for adenosine derivative having Formula 1-A (“1-A”), which is a prodrug of islatravir (ISL). Following oral absorption, 1-A is rapidly converted to ISL, which is metabolized intracellularly to the active metabolite, ISL triphosphate (ISL-TP). The objectives of the study were to assess the safety, tolerability, and PK profiles of 1-A and ISL in plasma; and ISL diphosphate (ISL-DP) and ISL-TP in human PBMCs.
as §1

The nature of series [4]: Stability in Human Plasma (conversion to EFdA). The class given is in vitro ADME. The text has this:
(§3) The adenosine derivative having the Formula 1-A was produced according to the process described in PCT publication WO2021021717, published on Feb. 4, 2021, herein incorporated by reference. [table]

Series [5] in a line: Phase I study: pharmacokinetics of 1-A and islatravir in plasma. It is filed as in vivo, human.
From the text: as §2, §1

Series [6] in a line: Stability in Human Liver S9 (conversion to EFdA). It is filed as in vitro ADME.
From the text: as §3

[7] abbreviates: single or multiple oral doses of 1-A, 10 mg to 200 mg.

As a reminder, the half-life is the time in which the quantity being followed falls by half. In the case of `C#C[C@]1(COP(=O)(O)OP(=O)(O)OP(=O)(O)O)O[C@@H](n2cnc3c(N)nc(F)nc32)C[C@@H]1O` [EFdA-TP, 4′-ethynyl-2-fluoro-2′-deoxyadenosine triphosphate], the half-life in series [1] is around 108 h.

Turning to `C#C[C@]1(COC(=O)OCc2oc(=O)oc2C)O[C@@H](n2cnc3c(N)nc(F)nc32)C[C@@H]1O` [Formula 1-A, ((2R,3S,5R)-5-(6-amino-2-fluoro-9H-purin-9-yl)-2-ethynyl-3-hydroxytetrahydro-furan-2-yl)methyl ((5-methyl-2-oxo-1,3-dioxol-4-yl)methyl) carbonate], in series [2] (10 mg QW × 3 oral (N = 3)), the “Number (%) of Subjects with Any Death” value was found to be 0; the “Number (%) of Subjects with Any TEAE” value is 2 (66.7%); the “Number (%) of Subjects with Any TEAE Grade 1” value was 2 (66.7%); the “Number (%) of Subjects with Any TEAE Grade 2, 3, 4, or 5” value is listed as 0. In addition, in series [2] (10 mg QW × 3 oral (N = 3)), the “Number (%) of Subjects with Any TEAE Leading to Premature Discontinuation of Study Drug” value is recorded as 0; the “Number (%) of Subjects with Any TEAE Related to Study Drug” value was 2 (66.7%); the “Number (%) of Subjects with Any TEAE Related to Study Drug Grade 1” value is on record as 2 (66.7%); the “Number (%) of Subjects with Any TEAE Related to Study Drug Grade 2, 3, 4, or 5” value is 0. In addition, the “Number (%) of Subjects with Any Treatment-emergent Serious AE” value in series [2] (10 mg QW × 3 oral (N = 3)) was 0. In addition, in series [2] (25 mg QW × 3 oral (N = 6)), the “Number (%) of Subjects with Any Death” value is 0; the “Number (%) of Subjects with Any TEAE” value was 2 (33.3%); the “Number (%) of Subjects with Any TEAE Grade 1” value is reported as 2 (33.3%); the “Number (%) of Subjects with Any TEAE Grade 2, 3, 4, or 5” value came to 0. In series [2] (25 mg QW × 3 oral (N = 6)), the “Number (%) of Subjects with Any TEAE Leading to Premature Discontinuation of Study Drug” value came to 0; the “Number (%) of Subjects with Any TEAE Related to Study Drug” value is 2 (33.3%); the “Number (%) of Subjects with Any TEAE Related to Study Drug Grade 1” value is reported as 2 (33.3%); the “Number (%) of Subjects with Any TEAE Related to Study Drug Grade 2, 3, 4, or 5” value worked out at 0. Moreover, the “Number (%) of Subjects with Any Treatment-emergent Serious AE” value in series [2] (25 mg QW × 3 oral (N = 6)) is 0. Besides, in series [2] (single doses up to 200 mg and repeat doses up to 25 mg, healthy adults), the tolerability result is “generally well tolerated”. Besides, in series [3] (Day 1), the “ISL-TP in PBMCs AUClast” value is 617 h*pmol/10^6 cells and the “ISL-TP in PBMCs Cmax” value is given as 5.70 pmol/10^6 cells. Also, in series [3] (Day 15), the “ISL-TP in PBMCs AUClast” value worked out at 2210 h*pmol/10^6 cells and the “ISL-TP in PBMCs Cmax” value is 15.4 pmol/10^6 cells. In series [3] (after 3 weekly doses of 25 mg 1-A), the “ISL-TP accumulation in PBMCs” value is recorded as “significant ISL-TP accumulations”. For the same compound, in series [3] (oral 1-A, dose-dependent manner), the “intracellular formation of ISL-TP in PBMCs” value is given as “Efficient intracellular formation”. Further, the half-life in series [4] (human plasma) is below 0.833 h. In addition, in series [4] (human plasma assay), the “conversion to the target drug” value was “converted to the target drug efficiently”. The “Stability in Human Plasma Formation of EFdA at 60 min” value in series [4] (human plasma, 60 min) is “Yes”. For the same compound, the “PK profiles of ISL in plasma and ISL-TP in PBMC cells” value in series [5] (after single and multiple oral administrations of 1-A) is reported as “linear pharmacokinetics”. In series [5] (single or multiple oral administrations of 1-A up to 200 mg, healthy adults), the “systemic exposure to 1-A (plasma, LLOQ)” value is given as below 1.0 ng/mL. For the same compound, in series [5] (setting [7]), the “EFdA accumulation in plasma” value is on record as “No meaningful EFdA accumulation” and the “ISL plasma PK profiles” value is “Dose-dependent”. In series [6] (human liver S9), this compound yielded a half-life below 0.833 h. In addition, the “Stability in Human Liver S9 Formation of EFdA at 60 min” value in series [6] (human liver S9, 60 min) is listed as “Yes”. Besides, the “conversion to the target drug” value in series [6] (human liver S9 assay) was “converted to the target drug efficiently”.

The values are drawn from US20260248834A1, “PHARMACEUTICAL COMPOSITION AND METHOD FOR TREATMENT OF HUMAN IMMUNODEFICIENCY VIRUS INFECTIONS” (Brii Biosciences, Inc., priority 2022, published 2026).
